Among the data in patent US20230144838A1, “THERANOSTIC SYSTEM FOR DIRECTED DIFFUSION OF THERAPEUTIC AND IMAGING AGENTS TO CANCER CELLS” (UNIVERSITAT POLITÈCNICA DE VALÈNCIA, priority 2019, published 2023) are IC50 values, retold here.

SMILES strings stand for the structures.

The assay concerns LNCaP (with membrane receptors FOLH1). Description: In vitro cytotoxic activity by MTT assay, LNCaP cells. Format: cell-based. The settings on record: LNCaP human prostate adenocarcinoma cells, 72 hours, DTX equivalent concentration, n = 3, read-out: IC50 (mean ± SD). Background: Tetrazolium dyes change colour on reduction, which living cells bring about.

Protocol: The in vitro cytotoxic activity of the theranostic system was determined by the 3-[4,5-dimethylthiazol-2-yl]-2,5-diphenyltetrazolium (MTT) bromide test. In these assays, the proliferation of living cells is determined via mitochondrial dehydrogenase activity: viable mitochondria reduce MTT by generating MTT-formazan crystals that are quantifiable by visible spectrophotometry.
Two types of human prostate adenocarcinoma cell lines were used for these assays: LNCaP (with membrane receptors FOLH1, PROTEIN DATA BANK ID FOLH1: 1Z8L) and PC3 (without FOLH1 receptors).
The cells are seeded in 96-well plates at a rate of 10,000 cells/well in both cases, 24 h before incorporating the nanoparticles. Aliquots of 3 mg ml-^1 of DTX in DMSO are prepared and kept at −20° C. When required, an aliquot is thawed, and working aliquots (100 μg/ml by dilution in enriched RPMI medium) are prepared. Alternatively, aliquots of 100 μg/mL DTX are prepared in enriched RPMI medium and kept at −20° C. until required. […]
At the end of the incubation period, 10 μl (5 mg/ml) of the MTT solution are added to each well and 4 hours later the formazan crystals are dissolved with isopropanol, and the absorbance at 570 nm is measured. The percentage of cell survival relative to untreated cells is determined and the values of IC50 from the curve DTX concentration-(%) live cells are calculated.

A word on the IC50: it is the concentration that inhibits the measured activity by half. As to `CC(=O)O[C@@]12CO[C@@H]1C[C@H](O)[C@@]1(C)C(=O)[C@H](O)C3=C(C)[C@@H](OC(=O)[C@H](O)[C@@H](NC(=O)OC(C)(C)C)c4ccccc4)C[C@@](O)([C@@H](OC(=O)c4ccccc4)[C@H]21)C3(C)C` [DTX, docetaxel], the 50% inhibitory concentration (IC50) is 0.8 ± 0.2 µg/mL.
